Assay results reported in US20250360134A1, “6-6 OR 5-6 FUSED BICYCLIC COMPOUNDS COMPRISING A PYRI(MI)DINE RING USEFUL IN THE|TREATMENT OF INFECTIOUS DISEASES” (INSTITUT NATIONAL DE LA SANTE ET DE LA RECHERCHE MEDICALE …, priority 2020, published 2025).
Counter-ions that a name gives are not always drawn. Like-named read-outs stand apart in the source and are kept apart here.

Tests used:
[1] = tested on: Trypanosoma 9 and 11 chromosomic sequence FTrypBT; assay: FRET-melting, FTrypBT; details: K+ condition, 2 μM compound, 0.2 μM oligonucleotide
[2] = tested on: human telomeric sequence F21T; assay: FRET-melting, F21T; details: K+ condition, 2 μM compound, 0.2 μM oligonucleotide
[3] = tested on: Plasmodium telomeric sequence FPf1T; assay: FRET-melting, FPf1T; details: K+ condition, 2 μM compound, 0.2 μM oligonucleotide
Plasmodium falciparum W2 = assay: In vitro antiplasmodial activity, SYBR Green I, strain W2
Method: (§1) The in vitro antiplasmodial activities were tested over concentrations ranging from 39 to 40 μm against culture-adapted Plasmodium falciparum: reference strains 3D7 and W2. […] The parasites were cultivated in RPMI medium (Sigma-Aldrich, Lyon, France) supplemented with 0.5% Albumax I (Life Technologies Corporation, Paisley, UK), hypoxanthine (Sigma-Aldrich), and gentamicin (Sigma-Aldrich) with human erythrocytes and were incubated at 37° C. in a candle jar, as described in Desjardins R E et al., Antimicrob Agents Chemother, 1979; 16:710-18.
(§2) The P. falciparum drug susceptibility test was carried out in 96-well flat bottom sterile plates in a final volume of 250 μL. After a 48-hour incubation with the drugs, quantities of DNA in treated and control cultures of parasites in human erythrocytes were quantified using the SYBR Green I (Sigma-Aldrich) fluorescence-based method as described in Bennett T N et al, Antimicrob Agents Chemother, 2004; 48:1807-10. Briefly, after incubation, plates were frozen at −20° C. until use. Plates were then thawed for 2 hours at room temperature, and 100 μL of each homogenized culture was transferred to a well of a 96-well flat bottom sterile black plate (Nunc, Inc., Rochester, NY) that contained 100 μL of the SYBR Green I lysis buffer (2×SYBR Green, 20 mM Tris base pH 7.5, 5 mM EDTA, 0.008% w/v saponin, 0.08% w/v Triton X-100). […] Plates were incubated for 1 hour at room temperature and then read on a fluorescence plate reader (Tecan, Grödig, Austria) using excitation and emission wavelengths of 485 and 535 nm, respectively. Concentrations inhibiting 50% of the parasite's growth (half maximal inhibitory concentration or IC50 values) were then calculated from the obtained experimental results by non-linear regression analysis of data from dose-response curves, using TableCurve 2D version 5.0 software (Systat Software, San Jose, CA). IC50 values are reported as means calculated from three independent experiments, as described in H. Kaddouri et al., Antimicrob.

[4] = tested on: Plasmodium falciparum 3D7; assay: In vitro antiplasmodial activity, SYBR Green I, strain 3D7
Method: as §1, §2

[5] = tested on: Plasmodium telomeric sequence FPf8T; assay: FRET-melting, FPf8T; details: K+ condition, 2 μM compound, 0.2 μM oligonucleotide
[6] = tested on: human duplex sequence FdxT; assay: FRET-melting, FdxT; details: duplex control, K+ condition, 2 μM compound, 0.2 μM oligonucleotide
[7] = tested on: T. brucei brucei AnTat 1.9; assay: In vitro antitrypanosomal activity, Alamar Blue assay; format: cell-based, Trypanosoma brucei brucei; details: Trypanosoma brucei, read-out: IC50 T. brucei brucei
Method: The effects of the tested compounds on the growth of T. brucei brucei were assessed using an Alamar Blue® assay described in B. Raz et al., Acta Trop. 1997, 68, 139. T. brucei brucei AnTat 1.9 (IMTA, Antwerpen, Belgium) was cultured in MEM with Earle's salts, supplemented according to the protocol disclosed in T. Baltz et al., EMBO J. 1985, 4, 1273, with the following modifications: 0.5 mM mercaptoethanol (Sigma-Aldrich), 1.5 mM 1-cysteine (Sigma-Aldrich), 0.05 mM bathocuproine sulfate (Sigma-Aldrich), and 20% heat-inactivated horse serum (Gibco, France) at 37° C. and 5% CO2. Samples were incubated at an average density of 2000 parasites/well in sterile 96-well plates (Fisher, France) with various concentrations of compounds dissolved in 0.9% NaCl. All doses were tested in duplicate. Appropriate controls treated with solvents 0.9% NaCl or DMSO or with suramin, pentamidine, eflornithine, and fexinidazole (reference drugs purchased from Sigma-Aldrich and Fluorochem, UK) were added to each set of experiments. After a 69-hour incubation at 37° C., 10 μl of the viability marker Alamar Blue (Fisher) was added to each well, and the plates were incubated for 5 hour. The plates were read in a PerkinElmer ENSPIRE (Germany) microplate reader using an excitation wavelength of 530 nm and an emission wavelength of 590 nm. The IC50 was defined as the concentration of drug necessary to inhibit by 50% the activity of T. brucei brucei compared to the control. IC50 values were calculated using a non-linear regression analysis of dose-response curves performed using GraphPad Prism software (USA). IC50 values were calculated from three independent experiments.

[8] = Plasmodium falciparum, W2, 48 h, read-out: IC50 Plasmodium falciparum W2, chloroquine-resistant strain W2, 48-hour incubation
[9] = Plasmodium falciparum, 3D7, 48 h, read-out: IC50 Plasmodium falciparum 3D7, chloroquine-sensitive strain 3D7, 48-hour incubation
[10] = 69-hour incubation, Alamar Blue
[11] = read-out: IC50 Plasmodium falciparum 3D7, chloroquine-sensitive strain 3D7, 48-hour incubation, oxalate
[12] = read-out: IC50 Plasmodium falciparum W2, chloroquine-resistant strain W2, 48-hour incubation
[13] = read-out: IC50 Plasmodium falciparum 3D7, chloroquine-sensitive strain 3D7, 48-hour incubation

Row | Structure (SMILES) | FRET-melting values in K+ conditions at 2 μM ΔTm FtryBT [1] | FRET-melting values in K+ conditions at 2 μM ΔTm F21T [2] [°C] | FRET-melting values in K+ conditions at 2 μM ΔTm FPf1T [3] [°C] | IC50 (Plasmodium falciparum W2; [8]) [nM] | IC50 [4, 9] [nM] | FRET-melting values in K+ conditions at 2 μM ΔTm FPf8T [5] [°C] | FRET-melting values in K+ conditions at 2 μM ΔTm FdxT [6] [°C] | IC50 [7, 10] [nM] | IC50 ([7]; 69 h) [nM] | IC50 (Plasmodium falciparum W2; read-out: IC50 Plasmodium falciparum W2, chloroquine-resistant strain W2, 48-hour incubation, oxalate) [nM] | IC50 [4, 11] [nM] | IC50 (Plasmodium falciparum W2; [12]) [nM] | IC50 [4, 13] [nM]
1 | COC(=O)C(CCCCNCc1ccc(-c2nc(-c3ccc(CNCCCCC(NC(=O)OC(C)(C)C)C(=O)OC)cc3)c3ccn(C)c3n2)cc1)NC(=O)OC(C)(C)C (stereo not shown) [Compound 10B, 2,4-Bis{4-[(5-(tert-butoxycarbonylamino)-5-methoxycarbonyl)pentyl)aminomethyl]phenyl}-7-methyl-7H-pyrrolo[2,3-d]pyrimidine oxalate] | 8.9 °C | 11.8 | 10.1 | 4360 ± 1700 | 610 ± 240 | 11.0 | −1.0 | 7050 ± 660 |  |  |  |  | 
2 | COC(=O)C(N)CCCCNCc1ccc(-c2nc(-c3ccc(CNCCCCC(N)C(=O)OC)cc3)c3ccn(C)c3n2)cc1 (stereo not shown) [Compound 11B, 2,4-Bis{4-[(5-amino-5-(methoxycarbonyl)pentyl)aminomethyl]phenyl}-7-methyl-7H-pyrrolo[2,3-d]pyrimidine oxalate] |  |  |  | 70 ± 10 | > 40000 |  |  | 5040 ± 730 |  |  |  |  | 
3 | CN(C)CCCNCc1ccc(-n2ccc3c(-c4ccccc4)nc(-c4ccccc4)nc32)cc1 [Compound 12B, 7-(4-[(3-Dimethylaminopropyl)aminomethyl]phenyl)-2,4-diphenyl-7H-pyrrolo[2,3-d]pyrimidine oxalate] |  |  |  | 9140 | 380 ± 250 |  |  |  |  |  |  |  | 
4 | CN1CCN(CCCNCc2ccc(-c3nc(Cl)nc4c3ccn4-c3ccccc3)cc2)CC1 [Compound 18B, 2-chloro-4-{4-[(3-(4-methylpiperazin-1-yl)propyl)aminomethyl]phenyl}-7-phenyl-7H-pyrrolo[2,3-d]pyrimidine oxalate] |  |  |  | 6960 ± 650 | 680 ± 130 |  |  |  | 60 |  |  |  | 
5 | CN(C)CCCNCc1cc(-c2nc(Cl)nc3c2ccn3-c2ccccc2)cs1 [Compound 20B, 2-Chloro-4-{2-[(3-dimethylaminopropyl)aminomethyl]thien-4-yl}-7-phenyl-7H-pyrrolo[2,3-d]pyrimidine oxalate] |  |  |  | 13600 ± 430 | 590 ± 170 |  |  |  | 80 |  |  |  | 
6 | CN(C)CCCNCc1ccc(-n2ccc3c(-c4ccccc4)nc(Cl)nc32)cc1 [Compound 22B, 2-Chloro-7-(4-[(3-dimethylaminopropyl)aminomethyl]phenyl)-4-phenyl-7H-pyrrolo[2,3-d]pyrimidine oxalate] |  |  |  | 730 ± 220 | 800 ± 410 |  |  |  | 30 |  |  |  | 
7 | CN1CCN(CCCNCc2ccc(-n3ccc4c(-c5ccccc5)nc(Cl)nc43)cc2)CC1 [Compound 23B, 2-Chloro-7-(4-[(3-(4-methylpiperazin-1-yl)propyl)aminomethyl]phenyl)-4-phenyl-7H-pyrrolo[2,3-d]pyrimidine oxalate] |  |  |  | 9140 | 380 ± 250 |  |  |  |  |  |  |  | 
8 | CN(C)CCCNCc1ccc(-c2nc3c(c(-c4ccc(CNCCCN(C)C)cc4)n2)CCN(C(=O)OC(C)(C)C)C3)cc1 [Compound 24B, Tert-butyl 2,4-bis{4-[(3-dimethylaminopropyl)aminomethyl]phenyl})-5,6-dihydropyrido[3,4-d]pyrimidine-7(8H)-carboxylate oxalate] | 7.6 °C | 10.3 | 9.1 | 180 ± 40 | 1630 ± 250 | 11.6 | −0.7 | 780 ± 60 |  |  |  |  | 
9 | CN(C)CCCNCc1ccc(-c2nc3c(c(-c4ccc(CNCCCN(C)C)cc4)n2)CCNC3)cc1 [Compound 25B, 2,4-Bis{4-[(3-dimethylaminopropyl)aminomethyl]phenyl})-5,6,7,8-dihydropyrido[3,4-d]pyrimidine oxalate] | 8.0 °C | 12.3 | 10.7 | 2230 ± 230 | 790 ± 120 | 11.1 | −0.9 | 2430 ± 100 |  |  |  |  | 
10 | CN(C)CCCNCc1ccc(-c2nc(-c3ccc(CNCCCN(C)C)cc3)c3cnn(-c4ccccc4)c3n2)cc1 [Compound 36B, 4,6-Bis{4-[(3-dimethylaminopropyl)aminomethyl]phenyl}-1-phenyl-1H-pyrazolo[3,4-d]pyrimidine oxalate] |  |  |  | 930 ± 150 | 2510 ± 250 |  |  |  |  |  |  |  | 
11 | CN(C)CCCCNCc1ccc(-c2nc(-c3ccc(CNCCCCN(C)C)cc3)c3cnn(-c4ccccc4)c3n2)cc1 [Compound 37B, 4,6-Bis{4-[(4-dimethylaminobutyl)aminomethyl]phenyl}-1-phenyl-1H-pyrazolo[3,4-d]pyrimidine] |  |  |  | 1180 ± 120 |  |  |  |  |  |  |  |  | 
12 | CN(C)CCCCCNCc1ccc(-c2nc(-c3ccc(CNCCCCCN(C)C)cc3)c3cnn(-c4ccccc4)c3n2)cc1 [Compound 38B, 4,6-Bis{4-[(5-dimethylaminopentyl)aminomethyl]phenyl}-1-phenyl-1H-pyrazolo[3,4-d]pyrimidine oxalate] |  |  |  |  |  |  |  |  |  | 4730 ± 280 | 350 ± 90 |  | 
13 | CN1CCN(CCCCNCc2ccc(-c3nc(-c4ccc(CNCCCCN5CCN(C)CC5)cc4)c4cnn(-c5ccccc5)c4n3)cc2)CC1 [Compound 39B, 4,6-Bis{4-[(4-(4-methylpiperazin-1-yl)butyl)aminomethyl]phenyl}-1-phenyl-1H-pyrazolo[3,4-d]pyrimidine oxalate] |  |  |  | 1530 ± 90 |  |  |  |  |  |  | 1830 ± 470 |  | 
14 | CN(C)CCCCNCc1ccc(-c2nc(-c3ccc(CNCCCCN(C)C)cc3)c3ncn(-c4ccccc4)c3n2)cc1 [Compound 40B, 2,4-Bis{4-[(4-dimethylaminobutyl)aminomethyl]phenyl}-7-phenyl-7H-imidazo[4,5-d]pyrimidine oxalate] | 30.3 °C | 31.68 | 35.1 | 1770 ± 90 | 4740 ± 900 | 33.9 | 8.51 |  |  |  |  |  | 
15 | CN(C)CCCCCNCc1ccc(-c2nc(-c3ccc(CNCCCCCN(C)C)cc3)c3cnn(-c4ccccc4)c3n2)cc1 [Compound 41B] | 33.0 °C | 34.0 | 36.4 |  |  | 34.9 | 9.7 |  |  |  |  | 1990 ± 120 | 1990 ± 900
16 | CN1CCN(CCCCNCc2ccc(-c3nc(-c4ccc(CNCCCCN5CCN(C)CC5)cc4)c4cnn(-c5ccccc5)c4n3)cc2)CC1 [Compound 42B] | 30. ° C. | 30.2 | 33.2 |  |  | 32.1 | 6.8 |  |  |  |  | 2370 ± 130 | 700 ± 150
17 | CN(C)CCCNCc1ccc(-c2nc(Cl)nc3c2ncn3-c2ccccc2)cc1 [Compound 43B, 2-Chloro-4-{4-[(3-dimethylaminopropyl)aminomethyl]phenyl}-7-phenyl-7H-imidazo[4,5-d]pyrimidine oxalate] | 2.7 °C | 1.7 | 2.4 | 830 ± 170 | 1530 ± 390 | 3.3 | 0.04 |  |  |  |  |  | 
18 | CN(C)CCCNCc1ccc(-c2cc(Cl)nc3c2ccn3-c2ccccc2)cc1 [Compound 47B, 6-Chloro-4-{4-[(3-dimethylaminopropyl)aminomethyl]phenyl}-1-phenyl-1H-pyrrolo[2,3-b]pyridine oxalate] | 4.3 °C | 2.8 | 3.3 | 720 ± 300 | 150 ± 20 | 4.0 | −0.2 |  |  |  |  |  | 
